Columns and labels:
Bax/Bcl‐2 ratio = assay: Western blot Bax/Bcl‐2 ratio in breast cancer cell lines; assay type: cell-based, human; conditions: both cell lines, 50 µM, 24 h
Experimental: (§1) Total protein levels were measured using the Take3 Multi‐Volume Plate (Synergy H1, BioTek Instruments Inc., Vermont, USA). In accordance with the classical protocol, transferred proteins were exposed to the following primary antibodies: Beta‐actin (NB600‐501, Novus Biologicals), Bax (SPM336, NBP2‐32809), Bcl‐2 (100/D5, NBP2‐15200), cleaved PARP (194C1439, NBP2‐27335), and COX‐2 (D‐12:sc‐166475, Santa Cruz). The bands were visualized with chemiluminescent HRP substrates (Western Bright ECL‐Advansta, K‐12045‐050). Using a chemiluminescence imaging system (Celvin S, BioStep), the relative quantification was done based on the level of β‐actin proteins.

MDA‐MB‐231 [1] = assay: MTT cell viability assay, MDA‐MB‐231; assay type: cell-based, human; conditions: for IC50: MTT
Description: (§2) MCF‐7, MDA‐MB‐231, and L‐929 mouse fibroblast cell lines were obtained from the American Type Culture Collection (ATCC, Manassas, Virginia, USA). MCF‐7 is a hormone‐responsive, differentiated mammary epithelium cell line with an ER+, PR+, and HER2‐ pattern (ATCC, HTB‐22). MDA‐MB‐231 is a triple‐negative differentiated mammary epithelium cell line (ATCC, HTB‐26). The L‐929 mouse fibroblast cell line is derived from the normal subcutaneous connective tissue of a mouse and is commonly used in cytotoxicity assays (ATCC, CCL‐1). All cell lines were cultured in DMEM medium (Dulbecco's Modified Eagle Medium, Gibco), supplemented with 10% fetal bovine serum (Gibco), 1% glutamine, and penicillin/streptomycin (Gibco) in a humidified atmosphere containing 5% CO2 at 37°C. Cell viability was tested using Trypan blue staining.
(§3) The MTT [3‐(4,5‐dimethylthiazol‐2‐yl)−2,5‐diphenyltetrazolium bromide] assay is a colorimetric assay for determining cell metabolic activity. In the MTT assay, the yellow dye MTT that dissolves in water is changed by mitochondrial reductase into a purple formazan that is non‐soluble. The water‐insoluble formazan produced is solubilized in a solubilization buffer, and absorbances are detected.
(§4) In 96‐well plates, the cells were cultivated at a density of 5 × 10^3 cells/well using 100 µL medium. […] 10 μL of the MTT labeling reagent (final concentration 0.5 mg/mL) were added to each well at the end of the incubation periods, and the wells were incubated for an additional 4 h. Next, each well received 100 μL of solubilization buffer (10% SDS in 0.01 M HCl) and was overnight incubated, and the absorbance of formazan products was evaluated at 550 nm using a multi‐mode microplate reader (Synergy H1, Biotech Instruments Inc., Vermont, USA). The results were normalized relative to the absorbances of calculated percent concentrations of DMSO. All tests involved three replicates with three independent experiments.
(§5) All statistical evaluations, including t‐tests and IC50 values, were calculated using the GraphPad Prism software tool (v6.0, GraphPad Software Inc., San Diego, USA). Statistical significance was defined as p ˂ 0.05 (*p < 0.05, **p < 0.01, ***p < 0.001, ****p < 0.0001).

MDA‐MB‐231 [2] = assay: Annexin V/PI staining, Tali image‐based cytometry, MDA‐MB‐231; assay type: cell-based, human; conditions: MDA‐MB‐231, 24 h
Description: (§6) To assess apoptosis and cell death, cells were stained with Annexin V‐PI dyes (Tali Apoptosis Kit‐Annexin V Alexa Fluor 488 and PI‐, Molecular Probes A10788, Invitrogen) and quantified using Tali Image‐Based Cytometer (Invitrogen) and fluorescence microscopy (Olympus CKX41 Inverted Phase Contrast Fluorescence Microscope furbished with reflected fluorescence illuminator CKX‐RFA).
(§7) To assess whether our compounds produce their cytotoxic effects through induction of apoptosis, apoptosis was investigated using Annexin V/PI labeling and MMP methods (Figures 4A−C). In addition, by utilizing TALI image‐based cytometry and fluorescent microscopy, the number of cells was analyzed for different concentrations of agents (Table 4).

COX‐2 [3] = assay: Western blot COX‐2 protein expression, MDA‐MB‐231; assay type: cell-based, human; conditions: 24 h
Experimental: as §1

COX‐2 [4] = assay: Western blot COX‐2 protein expression, MCF‐7; assay type: cell-based, human; conditions: 24 h
Experimental: as §1

MCF‐7 [5] = assay: Annexin V/PI staining, Tali image‐based cytometry, MCF‐7; assay type: cell-based, human; conditions: MCF‐7, 24 h
Description: as §6, §7

MCF‐7 [6] = assay: MTT cell viability assay, MCF‐7; assay type: cell-based, human; conditions: for IC50: Homo sapiens, MCF7, MTT
Description: as §2, §3, §4, §5

[7] = test system: L‐929 mouse fibroblast cell line; assay: MTT cell viability assay, L‐929 control fibroblasts; assay type: cell-based
Description: as §2, §3, §4, §5

PGE2 release = assay: PGE2 ELISA, MCF‐7; assay type: cell-based, human; conditions: Homo sapiens, MCF7; MCF‐7, 50 µM, 24 h
Experimental: PGE2 ELISA kit (ENZO, ADI‐900‐001) was used to determine prostaglandin synthesis levels. MCF‐7 and MDA‐MB‐231 breast cancer cells were cultured at a density of 1 × 10^6 cells/well in a 6‐well culture dish. […] Following 24 h of incubation, the medium was replaced with a fresh one, 10 µM arachidonic acid was added, and it was further incubated for 1 h. The PGE2 levels were determined according to the kit protocol.

## CCc1cccc2c3c([nH]c12)C(CC)(CC(=O)N/N=C/c1ccc(OC)cc1)OCC3 (racemic) [SGK 206, 2‐(1,8‐Diethyl‐1,3,4,9‐tetrahydropyrano[3,4‐b]indole‐1‐yl) acetic acid[(4‐methoxyphenyl)methylene]acetohydrazide]
Bax/Bcl‐2 ratio
  Bax/Bcl‐2 ratio change: significantly increased
MDA‐MB‐231 [1]; Homo sapiens, MDA-MB-231, 24 h, MDA‐MB‐231, 24 h
  IC50: 43 µM
MDA‐MB‐231 [1]; Homo sapiens, MDA-MB-231, 48 h, MDA‐MB‐231, 48 h
  IC50: 38 ± 2.3 µM
MDA‐MB‐231 [1]; Homo sapiens, MDA-MB-231, 72 h, MDA‐MB‐231, 72 h
  IC50: 36 ± 3.19 µM
MDA‐MB‐231 [1]; MDA‐MB‐231, 24 h
  IC50: 43.2 ± 1.94 µM
MDA‐MB‐231 [1]; MDA‐MB‐231 in comparison to L‐929, 24 h
  Selectivity index (SI): 1.65
MDA‐MB‐231 [1]; MDA‐MB‐231 in comparison to L‐929, 48 h
  Selectivity index (SI): 1.26
MDA‐MB‐231 [1]; MDA‐MB‐231 in comparison to L‐929, 72 h
  Selectivity index (SI): 1.38
MDA‐MB‐231 [2]; 25 µM
  Apoptotic cells: 1%
  Dead cells: 2%
  Live cells: 97%
MDA‐MB‐231 [2]; 50 µM
  Apoptotic cells: 4%
  Dead cells: 3%
  Live cells: 93%
MDA‐MB‐231 [2]; 75 µM
  Apoptotic cells: 8%
  Dead cells: 25%
  Live cells: 67%
COX‐2 [3]; MDA‐MB‐231, 50 µM
  Decrease in COX‐2 protein expression compared to the control group: 16%
COX‐2 [3]; MDA‐MB‐231, 75 µM
  Decrease in COX‐2 protein expression compared to the control group: 37%
COX‐2 [4]; MCF‐7, 50 µM
  Decrease in COX‐2 protein expression compared to the control group: 30%
COX‐2 [4]; MCF‐7, 75 µM
  Decrease in COX‐2 protein expression compared to the control group: 41%
MCF‐7 [5]; 25 µM
  Apoptotic cells: 2%
  Dead cells: 9%
  Live cells: 89%
MCF‐7 [5]; 50 µM
  Apoptotic cells: 4%
  Dead cells: 15%
  Live cells: 81%
MCF‐7 [5]; 75 µM
  Apoptotic cells: 19%
  Dead cells: 19%
  Live cells: 62%
MCF‐7 [6]; MCF‐7, 24 h
  IC50: 37 ± 1.74 µM
MCF‐7 [6]; MCF‐7, 48 h
  IC50: 34 ± 5.7 µM
MCF‐7 [6]; MCF‐7, 72 h
  IC50: 26 ± 0.66 µM
MCF‐7 [6]; MCF‐7 in comparison to L‐929, 24 h
  Selectivity index (SI): 1.93
MCF‐7 [6]; MCF‐7 in comparison to L‐929, 48 h
  Selectivity index (SI): 1.4
MCF‐7 [6]; MCF‐7 in comparison to L‐929, 72 h
  Selectivity index (SI): 1.91
[7]; L‐929, 24 h
  IC50: 71.3 ± 2.92 µM
[7]; L‐929, 48 h
  IC50: 47.9 ± 1.2 µM
[7]; L‐929, 72 h
  IC50: 49.7 ± 1.64 µM
[7]; Mus musculus, L929, 24 h, L‐929, 24 h
  IC50: 71 µM
[7]; Mus musculus, L929, 48 h, L‐929, 48 h
  IC50: 47 µM
[7]; Mus musculus, L929, 72 h, L‐929, 72 h
  IC50: 49 µM
PGE2 release
  inhibition at 50 µM: 90%

Source: paper PMC12337082 (Journal of Biochemical and Molecular Toxicology, 2025)
